Source: article PMC3356383, “Efficacious Intermittent Dosing of a Novel JAK2 Inhibitor in Mouse Models of Polycythemia Vera” (PLoS ONE, 2012)

Experiments:
Fgr = assay: Kinase profiling (Millipore); type: biochemical; conditions: IC50s measured at ATP Km, fold increase relative to JAK2
Procedure: (§1) Kinase profiling was conducted by Millipore (Billerica, MA).
(§2) Supplementary file pone.0037207.s003.doc: Table S1 Recombinant Kinase Selectivity Profile of MRLB-11055. IC50s measured at ATP Km, and fold increase relative to JAK2 is reported. (DOC) Click here for additional data file.

Arg = assay: Kinase profiling (Millipore); type: biochemical; conditions: IC50s measured at ATP Km, fold increase relative to JAK2
Procedure: as §1, §2

BTK = assay: Kinase profiling (Millipore); type: biochemical; conditions: IC50s measured at ATP Km, fold increase relative to JAK2
Procedure: as §1, §2

TrkA = assay: Kinase profiling (Millipore); type: biochemical; conditions: IC50s measured at ATP Km, fold increase relative to JAK2
Procedure: as §1, §2

ARK5 = assay: Kinase profiling (Millipore); type: biochemical; conditions: IC50s measured at ATP Km, fold increase relative to JAK2
Procedure: as §1, §2

Lyn = assay: Kinase profiling (Millipore); type: biochemical; conditions: IC50s measured at ATP Km, fold increase relative to JAK2
Procedure: as §1, §2

Bmx = assay: Kinase profiling (Millipore); type: biochemical; conditions: IC50s measured at ATP Km, fold increase relative to JAK2
Procedure: as §1, §2

Flt3 = assay: Kinase profiling (Millipore); type: biochemical; conditions: IC50s measured at ATP Km, fold increase relative to JAK2
Procedure: as §1, §2

MLK1 = assay: Kinase profiling (Millipore); type: biochemical; conditions: IC50s measured at ATP Km, fold increase relative to JAK2
Procedure: as §1, §2

Fyn = assay: Kinase profiling (Millipore); type: biochemical; conditions: IC50s measured at ATP Km, fold increase relative to JAK2
Procedure: as §1, §2

BaF3 (JAK2 V617F) cells [1] = assay: Cell apoptosis, ApoDirect assay; type: cell-based; conditions: Mus musculus, 24 hour, ApoDirect measurement of fragmented DNA, read-out: Cell apoptosis, BaF3 (JAK2 V617F) (values shown are EC50)
Procedure: (§3) Cell survival was measured by ApoDirect (BD Biosciences) assay as follows. BaF3 cells were grown at 37°C, 5% CO2, and aliquots (2 × 10^6) were treated with inhibitor (various concentration dissolved in DMSO) for 24 hours and then fixed and stained as per manufacturer protocol.

BaF3 (JAK2 WT) cells [2] = assay: Cell apoptosis, ApoDirect assay; type: cell-based; conditions: Mus musculus, 24 hour, EPO-stimulated, ApoDirect measurement of fragmented DNA, read-out: Cell apoptosis, BaF3 (JAK2 WT) (values shown are EC50)
Procedure: as §3

pSTAT5 = assay: Acute PK/PD: pSTAT5 in peripheral blood of darbepoetin-stimulated mice; type: in vivo, C57BL/6 mice; conditions: Mus musculus
Procedure: C57BL/6 mice (Charles River Laboratories, Wilmington, MA) aged 4–6 weeks were dosed with MRLB-11055 in vehicle (10%v/v polysorbate 80) or with vehicle alone. All dosing was done by oral gavage (10 ml/kg body weight/day). Blood sampling and measurement of pSTAT5 in the blood of darbepoetin-stimulated mice were measured as described previously. The level of MRLB-11055 in the blood of animals was measured by diluting blood samples (10 uL) with citrate buffer (30 uL) and precipitating with acetonitrile (200 uL) containing a structural analog as internal standard. Precipitated samples were filtered, water (200 uL) was added and the sample injected onto a C18 column (Waters Atlantis T3, 2.1 mm x 30 mm). Electrospray ionization with multiple reaction monitoring was used for MS/MS detection.

[3] = test system: JAK2V617F-Luciferase expressing cells; assay: Bone marrow transplant mice expressing JAK2V617F-Luciferase (PV model); type: in vivo
Procedure: Production of retrovirus containing cDNA of JAK2 V617F fused to luciferase 2 was performed as described previously as was transplantation of bone marrow cells infected with virus into irradiated mice.
Imaging of mice expressing JAK2 V617F-Luciferase was conducted as described previously.
Measurement of the level of JAK2 V617F allele in the tissues of transplanted mice was done as described previously.
Cells were stained in PBS, 0.5% BSA with antibodies for 15 min on ice. Stained cells were acquired on a 4-laser LSR-II (BD Biosciences) and data analyzed using FlowJo software (Treestar). Dead cells were labeled with the blue fluorescent LIVE/DEAD reactive dye (Invitrogen) and excluded from the analysis.

BaF3 (JAK2 V617F) cells [4] = assay: Cell proliferation, ViaLight assay; type: cell-based; conditions: Mus musculus, 48 hour
Procedure: (§4) Cell proliferation was measured by ViaLight (Lonza Group Ltd) assay as follows. Cells (1000–2000) were seeded into 384-well plates and incubated 16 hours @ 37°C, 5% CO2. […] Cells were lysed and ATP detected as per the manufacturer protocol.

BaF3 (JAK2 WT) cells [5] = assay: Cell proliferation, ViaLight assay; type: cell-based; conditions: Mus musculus, 48 hour, EPO-stimulated
Procedure: as §4

CTLL-2 cells = assay: Cell proliferation, ViaLight assay; type: cell-based
Procedure: as §4

H2122 cells = assay: Cell proliferation, ViaLight assay; type: cell-based; conditions: Homo sapiens, NCI-H2122, 48 hour, epithelial lung cancer cell line
Procedure: as §4

JAK3 (JH1) = target: T1, JAK3 (JH1) (Homo sapiens, UniProt P52333); assay: JAK3 enzyme assay, HTRF detection; type: biochemical
T1 construct: JAK3 (JH1)
T1 sequence (P52333 822-1111 limits assumed, species assumed): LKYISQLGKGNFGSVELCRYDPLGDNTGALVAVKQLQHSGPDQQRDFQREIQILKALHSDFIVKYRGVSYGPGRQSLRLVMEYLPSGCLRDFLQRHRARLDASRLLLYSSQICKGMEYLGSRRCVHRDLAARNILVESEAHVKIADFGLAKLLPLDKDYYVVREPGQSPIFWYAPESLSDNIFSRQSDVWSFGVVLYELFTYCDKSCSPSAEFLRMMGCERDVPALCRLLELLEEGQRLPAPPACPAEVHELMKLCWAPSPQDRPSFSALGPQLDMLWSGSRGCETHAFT
Procedure: JAK1, JAK2, JAK3, and TYK2 kinase activity assays were performed as described previously using HTRF detection technology and the peptide substrate amino hexanoyl biotin-EQEDEPEGDYFEWLE-NH2. Each reaction was incubated between 60 and 80 min at room temperature. Final conditions were as follows: JAK1, 400 pM enzyme, Hepes pH 7.5, 10 mM MgCl2, 0.01% Brij-35, 1 mM EGTA, 0.1 mg/ml BSA), 2 mM DTT, 2 µM peptide substrate, 25 µM MgATP, 5% DMSO and the desired concentration of subject compound; JAK2, 25 pM enzyme (JH1, JH1–JH2^wt, JH1–JH2^V617F domains), 2 µM peptide substrate, 15 µM MgATP, 5 mM MgCl2, 100 mM NaCl, 2 mM DTT, 0.1 mg/ml BSA, 50 mM Tris (pH 7.4), 5% DMSO and the desired concentration of subject compound; JAK3, 250 pM enzyme, 50 mM Hepes pH 7.5, 10 mM MgCl2, 0.01% Brij-35, 1 mM EGTA, 0.1 mg/ml BSA), 2 mM DTT, 2.0 µM peptide substrate, 25 µM MgATP, 5% DMSO, and the desired concentration of subject compound; TYK2, 125 pM enzyme, 50 mM Hepes pH 7.5, 10 mM MgCl2, 0.01% Brij-35, 1 mM EGTA, 0.1 mg/ml BSA, 2 mM DTT, 2.0 µM peptide substrate, 15 µM MgATP, 5% DMSO and the desired concentration of subject compound.

NC(=O)c1cnc(N[C@H](C2CC2)C(F)(F)F)c2c1[nH]c1cc(-c3cnc(N)nc3)ccc12 [MRLB-11055]
Fold-Shift /JAK2, Fgr (Fgr): 5 fold
Fold-Shift /JAK2, Arg (Arg): 17 fold
Fold-Shift /JAK2, BTK (BTK): 7 fold
Fold-Shift /JAK2, TrkA (TrkA): 1 fold
Fold-Shift /JAK2, ARK5 (ARK5): 6 fold
Fold-Shift /JAK2, Lyn (Lyn): 4 fold
Fold-Shift /JAK2, Bmx (Bmx): 4 fold
Fold-Shift /JAK2, Flt3 (Flt3): 3 fold
Fold-Shift /JAK2, MLK1 (MLK1): 18 fold
Fold-Shift /JAK2, Fyn (Fyn): 2 fold
EC50 (BaF3 (JAK2 V617F) cells [1]): 135 nM
EC50 (BaF3 (JAK2 WT) cells [2]): 260 nM
inhibition at 36 mg/kg (pSTAT5; 36 mg/kg oral, maintained over 12 hours): > 90%
IC50 (pSTAT5; oral dosing, mice simultaneously injected with darbepoetin, read-out: IC50 for inhibition of pSTAT5 in peripheral blood in vivo): 1200 nM
Reduction in spleen BLI over first 3 days of treatment ([3]; 54 mpk oral once daily for 3 days, cycle 1): ~20 fold
Spleen BLI, splenic CD71+TER119+ cells and V617F allele burden in peripheral blood ([3]; 54 mpk oral once daily, Day 3, no further benefit out to Day 7): Significant reductions in all three endpoints
Spleen weight at end of second holiday period ([3]; 54 mpk, 2 cycles): normalization in spleen weight
Hematocrit after 2 cycles ([3]; 54 mpk, 2 cycles of 3 days on, 4 days off, decreased from 53%, vehicle 53% to 56%): 42%
CD71+TER119+ cells in spleen relative to vehicle controls ([3]; 54 mpk, end of second holiday period): significant reduction
Level of pSTAT5 in spleens of JAK2V617F-Luciferase mice ([3]; 1 hour post-dose): significantly inhibited
Increase in spleen BLI over the 4 day holiday ([3]; 4 days after 3 days of 54 mpk, cycle 1): ~4 fold
Spleen BLI after holiday, fold less than pre-treatment levels ([3]; end of cycle 1 (3 days on, 4 days off), 54 mpk): about 5 fold
IC50 (BaF3 (JAK2 V617F) cells [4]): 29 nM
IC50 (BaF3 (JAK2 WT) cells [5]): 14 nM
Fold more potent against IL-2-dependent CTLL cells than JAK2V617F BaF3 cells in proliferation assays (CTLL-2 cells): 2 fold
IC50 (CTLL-2 cells; Mus musculus, CTLL-2, 48 hour, Vialight): 13 nM
IC50 (H2122 cells): 1900 nM
IC50 (JAK3 (JH1); HTRF, mean, n = 3, read-out: IC50, cell-free JAK3 (JH1)): 300 nM
Selectivity for JAK2 over JAK3 (JAK3 (JH1); cell-free assays): > 3000 fold
